These results are taken from patent publication EP4745138A1, “THIO-GLUTARIMIDO ISOINDOLINONE DERIVATIVE, BIFUNCTIONAL PROTEIN DEGRADER CONTAINING SAME, AND USES THEREOF” (Gluetacs Therapeutics (Shanghai) Co., Ltd., priority 2023, dated 2025).

Structures are written as SMILES.

The assay deals with T1, human Cereblon WT GST-tagged protein (Homo sapiens, UniProt Q96SW2).
T1 construct: purchased CISBIO 64BDCRBNPEH
In words: CRBN-binding affinity, HTRF (CEREBLON BINDING kit). The note with it: for inhibition at 0.5 µM: read-out: Inhibition Rate at 0.5 µM (%); for inhibition at 2 µM: read-out: Inhibition Rate at 2 µM (%). The source says: The CEREBLON BINDING kits (specification: 10,000 tests; product number: Catalog # 64BDCRBNPEH; CISBIO company) was used to determine the CRBN binding ability of the compounds to be tested through a HTRF method (homogeneous time-resolved fluorescence). The specific methods are as follows: • 1. […] Specifically, diluent #9 (1X) solution was used as the diluent, and multiple concentration gradients were set. […] Into the 96-well plate, the diluted test compounds and corresponding detection reagents were added, resulting in final test compound concentrations of 2 µM and 0.5 µM, respectively. […] Then, 2.5 µL of human Cereblon WT GST-tagged protein solution was added to each well. Finally, 5 µL of the thoroughly mixed Thalidomide-Re reagent and GST Eu antibody working solution were added to each of the aforementioned wells. […] The blank control wells were sequentially added with 2.5 µL of diluent #9 (1X) solution, 2.5 µL of PROTAC binding buffer, and 5 µL of thoroughly mixed Thalidomide-Re reagent and GST Eu antibody working solution. • 4.
Background: TR-FRET usually uses a lanthanide donor and a delayed reading to cut background.

T1 sequence (Q96SW2 whole entry): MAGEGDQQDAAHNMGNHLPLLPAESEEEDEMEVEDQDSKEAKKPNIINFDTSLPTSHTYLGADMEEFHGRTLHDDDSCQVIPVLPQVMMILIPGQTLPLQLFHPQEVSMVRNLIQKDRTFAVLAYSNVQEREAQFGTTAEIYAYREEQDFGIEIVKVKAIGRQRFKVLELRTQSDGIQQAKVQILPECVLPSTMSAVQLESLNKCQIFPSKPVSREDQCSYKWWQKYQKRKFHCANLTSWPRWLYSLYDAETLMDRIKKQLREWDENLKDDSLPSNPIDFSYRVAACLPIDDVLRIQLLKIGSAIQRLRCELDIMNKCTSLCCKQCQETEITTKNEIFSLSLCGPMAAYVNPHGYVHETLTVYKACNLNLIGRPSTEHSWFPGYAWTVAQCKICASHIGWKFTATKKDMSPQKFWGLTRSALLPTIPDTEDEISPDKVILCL

In the case of `COc1cc(N2CCC(N3CCN(C)CC3)CC2)ccc1Nc1ncc(Cl)c(Nc2ccccc2P(C)(C)=O)n1` [Brigatinib, reference compound], the inhibition at 0.5 µM lay within 0 to 10% and the inhibition at 2 µM was in the range of 10 to 20%.
In the case of `COc1cc(N2CCC(N3CCN(Cc4cccc5c4CN(C4CCC(=O)NC4=O)C5=S)CC3)CC2)c(C)cc1Nc1ncc(Br)c(Nc2ccc3nccnc3c2P(C)(C)=O)n1` (stereo not drawn) [GT-05058, 3-(4-((4-(1-(4-((5-bromo-4-((5-(dimethylphosphoryl)quinoxalin-6-yl)amino)pyrimidin-2-yl)amino)-5-methoxy-2-methylphenyl)piperidin-4-yl)piperazin-1-yl)methyl)-1-thioxoisoindolin-2-yl)piperidine-2,6-dione], the inhibition at 0.5 µM lay in the range of 40 to 53% and the inhibition at 2 µM lay within 80 to 100%.
On to `Nc1ncnc2c1c(-c1ccc(Oc3ccccc3)cc1)nn2C1CCN(Cc2cccc3c2CN(C2CCC(=O)NC2=O)C3=S)CC1` (stereo not drawn) [GT-05074, 3-(4-((4-(4-amino-3-(4-phenoxyphenyl)-1H-pyrazolo[3,4-d]pyrimidin-1-yl)piperidin-1-yl)methyl)-1-thioxoisoindolin-2-yl)piperidine-2,6-dione], for which the inhibition at 0.5 µM was in the range of 40 to 53% and the inhibition at 2 µM was in the range of 60 to 80%.
Regarding `CC(C)Nc1cc(-n2ccc3cc(C#N)cnc32)ncc1C(=O)NC1CCN(Cc2ccc3c(c2)CN(C2CCC(=O)NC2=O)C3=S)CC1` (stereo not drawn) [GT-05294, 6-(5-cyano-1H-pyrrolo[2,3-b]pyridin-1-yl)-N-(1-((2-(2,6-dioxopiperidin-3-yl)-1-thioxoisoindolin-5-yl)methyl)piperidin-4-yl)-4-(isopropylamino)nicotinamide], the inhibition at 0.5 µM lay in the range of 60 to 80% and the inhibition at 2 µM lay in the range of 80 to 100%.
Turning to `COc1cc2nn(C3CCN(Cc4ccc5c(c4)CN(C4CCC(=O)NC4=O)C5=S)CC3)cc2cc1NC(=O)c1cccc(C(F)(F)F)c1` (stereo not drawn) [GT-05295, N-(2-(1-((2-(2,6-dioxopiperidin-3-yl)-1-thioxoisoindolin-5-yl)methyl)piperidin-4-yl)-6-methoxy-2H-indazol-5-yl)-3-(trifluoromethyl)benzamide], the inhibition at 0.5 µM was in the range of 60 to 80% and the inhibition at 2 µM is 80 to 100%.
Taken in the same sequence, the figures for `CC(C)(O)c1cc2nc(C3CCN(Cc4ccc5c(c4)CN(C4CCC(=O)NC4=O)C5=S)CC3)sc2cc1NC(=O)c1cccc(C(F)(F)F)n1` (stereo not drawn) [GT-05298, N-(2-(1-((2-(2,6-dioxopiperidin-3-yl)-1-thioxoisoindolin-5-yl)methyl)piperidin-4-yl)-5-(2-hydroxypropan-2-yl)benzo[d]thiazol-6-yl)-6-(trifluoromethyl)picolinamide] were 80 to 100% and 80 to 100%.
Turning to `CC(C)(O)c1cc2nc(C3CCN(Cc4ccc5c(c4)CN(C4CCC(=O)NC4=O)C5=S)CC3)oc2cc1NC(=O)c1cccc(C(F)(F)F)n1` (stereo not drawn) [GT-05320, N-(2-(1-((2-(2,6-dioxopiperidin-3-yl)-1-thioxoisoindolin-5-yl)methyl)piperidin-4-yl)-5-(2-hydroxypropan-2-yl)benzo[d]oxazol-6-yl)-6-(trifluoromethyl)picolinamide], the inhibition at 0.5 µM fell in the range of 80 to 100% and the inhibition at 2 µM is 80 to 100%.
On to `Nc1nnc(-c2cc(F)ccc2O)cc1N1CCN(Cc2ccc3c(c2)CN(C2CCC(=O)NC2=O)C3=S)CC1` (stereo not drawn) [GT-08712, 3-(5-((4-(3-amino-6-(5-fluoro-2-hydroxyphenyl)pyridazin-4-yl)piperazin-1-yl)methyl)-1-thioxoisoindolin-2-yl)piperidine-2,6-dione], for which the inhibition at 0.5 µM was 60 to 80% and the inhibition at 2 µM is 80 to 100%.
Take `Nc1nnc(-c2cc(F)ccc2O)cc1N1CC2CCC(C1)N2Cc1ccc2c(c1)CN(C1CCC(=O)NC1=O)C2=S` (stereo not drawn) [GT-08713, 3-(5-((3-(3-amino-6-(5-fluoro-2-hydroxyphenyl)pyridazin-4-yl)-3,8-diazabicyclo[3.2.1]octan-8-yl)methyl)-1-thioxoisoindolin-2-yl)piperidine-2,6-dione]: the inhibition at 0.5 µM was in the range of 40 to 53% and the inhibition at 2 µM was 80 to 100%.
For `N#CC1(CNc2nc(-c3cc(NC4CCN(Cc5ccc6c(c5)C(=S)N(C5CCC(=O)NC5=O)C6)CC4)ncc3Cl)cs2)CCOCC1` (stereo not drawn) [GT-08750, 4-(((4-(5-chloro-2-((1-((2-(2,6-dioxopiperidin-3-yl)-3-thioxoisoindolin-5-yl)methyl)piperidin-4-yl)amino)pyridin-4-yl)thiazol-2-yl)amino)methyl)tetrahy dro-2H-pyran-4-carbonitrile], the inhibition at 0.5 µM lay within 60 to 80% and the inhibition at 2 µM was 80 to 100%.
`COC1CCN(c2nccc(Nc3cc4c(cn3)c(N3CCN(Cc5cccc6c5CN(C5CCC(=O)NC5=O)C6=S)CC3)nn4C(C)C)n2)CC1` (stereo not drawn) [GT-08759, 3-(4-((4-(1-isopropyl-6-((2-(4-methoxypiperidin-1-yl)pyrimidin-4-yl)amino)-1H-pyrazolo[4,3-c]pyridin-3-yl)piperazin-1-yl)methyl)-1-thioxoisoindolin-2-yl)piperidine-2,6-dione]: the inhibition at 0.5 µM fell in the range of 30 to 40% and the inhibition at 2 µM was 60 to 80%.
As for `O=C1CCC(N2Cc3cc(CN4CCN(c5ncc(C(=O)Nc6ccc(OC(F)(F)Cl)cc6)cc5-c5cc[nH]n5)CC4)ccc3C2=S)C(=O)N1` (stereo not drawn) [GT-08769, N-(4-(chlorodifluoromethoxy)phenyl)-6-(4-((2-(2,6-dioxopiperidin-3-yl)-1-thioxoisoindolin-5-yl)methyl)piperazin-1-yl)-5-(1H-pyrazol-3-yl)nicotinamide], the inhibition at 0.5 µM was in the range of 53 to 60% and the inhibition at 2 µM was in the range of 80 to 100%.
Take `O=C1CCC(N2Cc3c(CN4CCN(c5ncc(C(=O)Nc6ccc(OC(F)(F)Cl)cc6)cc5-c5cc[nH]n5)CC4)cccc3C2=S)C(=O)N1` (stereo not drawn) [GT-08775, N-(4-(chlorodifluoromethoxy)phenyl)-6-(4-((2-(2,6-dioxopiperidin-3-yl)-1-thioxoisoindolin-4-yl)methyl)piperazin-1-yl)-5-(1H-pyrazol-3-yl)nicotinamide]: the inhibition at 0.5 µM was 30 to 40% and the inhibition at 2 µM fell in the range of 60 to 80%.
As to `Nc1nnc(-c2ccccc2O)cc1N1CCN(Cc2ccc3c(c2)CN(C2CCC(=O)NC2=O)C3=S)CC1` (stereo not drawn) [GT-08785, 3-(5-((4-(3-amino-6-(2-hydroxyphenyl)pyridazin-4-yl)piperazin-1-yl)methyl)-1-thioxoisoindolin-2-yl)piperidine-2,6-dione], the inhibition at 0.5 µM was 60 to 80% and the inhibition at 2 µM was 80 to 100%.
As to `Nc1nnc(-c2cc(F)ccc2O)cc1N1CCN(Cc2cccc3c2CN(C2CCC(=O)NC2=O)C3=S)CC1` (stereo not drawn) [GT-08788, 3-(4-((4-(3-amino-6-(5-fluoro-2-hydroxyphenyl)pyridazin-4-yl)piperazin-1-yl)methyl)-1-thioxoisoindolin-2-yl)piperidine-2,6-dione], the inhibition at 0.5 µM fell in the range of 40 to 53% and the inhibition at 2 µM lay in the range of 80 to 100%.
Taken in the same sequence, the figures for `Nc1nnc(-c2cc(F)ccc2O)cc1N1CCN(Cc2ccc3c(c2)C(=S)N(C2CCC(=O)NC2=O)C3)CC1` (stereo not drawn) [GT-08789, 3-(6-((4-(3-amino-6-(5-fluoro-2-hydroxyphenyl)pyridazin-4-yl)piperazin-1-yl)methyl)-1-thioxoisoindolin-2-yl)piperidine-2,6-dione] were 60 to 80% and 80 to 100%.
In the case of `Nc1nnc(-c2cc(F)ccc2O)cc1N1CC2CCC(C1)N2Cc1cccc2c1CN(C1CCC(=O)NC1=O)C2=S` (stereo not drawn) [GT-08790, 3-(4-((3-(3-amino-6-(5-fluoro-2-hydroxyphenyl)pyridazin-4-yl)-3,8-diazabicyclo[3.2.1]octan-8-yl)methyl)-1-thioxoisoindolin-2-yl)piperidine-2,6-dione], the inhibition at 0.5 µM fell in the range of 60 to 80% and the inhibition at 2 µM was in the range of 80 to 100%.
As to `Nc1nnc(-c2cc(F)ccc2O)cc1N1CC2CCC(C1)N2Cc1ccc2c(c1)C(=S)N(C1CCC(=O)NC1=O)C2` (stereo not drawn) [GT-08791, 3-(6-((3-(3-amino-6-(5-fluoro-2-hydroxyphenyl)pyridazin-4-yl)-3,8-diazabicyclo[3.2.1]octan-8-yl)methyl)-1-thioxoisoindolin-2-yl)piperidine-2,6-dione], the inhibition at 0.5 µM is 40 to 53% and the inhibition at 2 µM was in the range of 80 to 100%.
For `Cc1cc(S(=O)(=O)N2CCN(Cc3ccc4c(c3)C(=S)N(C3CCC(=O)NC3=O)C4)CC2)ccc1Nc1ncc(Br)c(Nc2cccc(F)c2C(N)=O)n1` (stereo not drawn) [GT-08794, 2-((5-bromo-2-((4-((4-((2-(2,6-dioxopiperidin-3-yl)-3-thioxoisoindolin-5-yl)methyl)piperazin-1-yl)sulfonyl)-2-methylphenyl)amino)pyrimidin-4-yl)amino)-6-fluorobenzamide] the same measures were 53 to 60% and 60 to 80%.
Turning to `Nc1nc(Nc2ccc(S(=O)(=O)N3CCN(Cc4cccc5c4CN(C4CCC(=O)NC4=O)C5=S)CC3)cc2)nn1C(=O)c1c(F)cccc1F` (stereo not drawn) [GT-08795, 3-(4-((4-((4-((5-amino-1-(2,6-difluorobenzoyl)-1H-1,2,4-triazol-3-yl)amino)phenyl)sulfony 1)piperazin-1-yl)methyl)-1-thioxoisoindolin-2-yl)piperidine-2,6-dione], the inhibition at 0.5 µM lay within 53 to 60% and the inhibition at 2 µM is 60 to 80%.
Turning to `Nc1nc(Nc2ccc(S(=O)(=O)N3CCN(Cc4ccc5c(c4)C(=S)N(C4CCC(=O)NC4=O)C5)CC3)cc2)nn1C(=O)c1c(F)cccc1F` (stereo not drawn) [GT-08796, 3-(6-((4-((4-((5-amino-1-(2,6-difluorobenzoyl)-1H-1,2,4-triazol-3-yl)amino)phenyl)sulfonyl)piperazin-1-yl)methyl)-1-thioxoisoindolin-2-yl)piperidine-2,6-dione], the inhibition at 0.5 µM is 80 to 100% and the inhibition at 2 µM lay in the range of 80 to 100%.

A word on the inhibition: it is how much of the control response was suppressed.
